In US20230077155A1, “TETRAHYDROISOQUINOLINE COMPOUND AS POTASSIUM CHANNEL MODULATOR AND PREPARATION AND APPLICATION THEREOF” (Shanghai Zhimeng Biopharma, Inc., priority 2020, published 2023):

How the values were obtained:
[1] = target: T1, KCNQ2 potassium channel (CHO-KCNQ2 cells) (Homo sapiens, UniProt O43526); test: Potassium ion channel opener activity test (FDSS/μCELL detection, FluxOR thallium flux); format: cell-based; settings: for Maximum agonist rate (%): highest test concentration 100 μM
T1 construct: expressed in transfected cells; host or cells: CHO cells stably expressing KCNQ2, kept under G418 selection
T1 sequence (O43526 whole entry): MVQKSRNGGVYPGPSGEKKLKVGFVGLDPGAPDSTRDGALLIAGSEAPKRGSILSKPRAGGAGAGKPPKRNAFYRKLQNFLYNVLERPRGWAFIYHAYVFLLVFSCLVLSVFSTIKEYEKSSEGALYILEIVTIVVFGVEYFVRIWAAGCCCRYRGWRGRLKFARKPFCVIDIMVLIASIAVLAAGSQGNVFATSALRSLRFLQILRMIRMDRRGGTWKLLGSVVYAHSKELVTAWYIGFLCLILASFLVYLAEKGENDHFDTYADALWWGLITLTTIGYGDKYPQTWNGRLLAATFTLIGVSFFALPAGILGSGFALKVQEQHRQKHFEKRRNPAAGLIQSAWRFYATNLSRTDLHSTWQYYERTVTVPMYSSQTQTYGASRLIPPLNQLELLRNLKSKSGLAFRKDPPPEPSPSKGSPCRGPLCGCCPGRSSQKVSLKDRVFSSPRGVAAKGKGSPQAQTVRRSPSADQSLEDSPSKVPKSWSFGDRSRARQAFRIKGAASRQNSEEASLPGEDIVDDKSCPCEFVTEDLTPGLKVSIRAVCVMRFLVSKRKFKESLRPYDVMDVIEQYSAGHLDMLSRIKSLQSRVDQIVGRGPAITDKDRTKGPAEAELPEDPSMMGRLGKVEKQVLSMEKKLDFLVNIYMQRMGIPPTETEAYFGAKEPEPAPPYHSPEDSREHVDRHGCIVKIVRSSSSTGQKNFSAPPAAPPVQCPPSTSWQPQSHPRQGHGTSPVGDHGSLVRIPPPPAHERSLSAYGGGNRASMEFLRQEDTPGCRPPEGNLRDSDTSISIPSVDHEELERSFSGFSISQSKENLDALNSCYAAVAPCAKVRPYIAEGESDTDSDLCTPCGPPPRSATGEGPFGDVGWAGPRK
Experimental: Potassium Ion Channel Opener Activity Test (FDSS/μCELL Detection)
1.1 Experimental procedure
Cell preparation: CHO-KCNQ2 cells were cultured in a 175 cm^2 culture flask, and when the cell density grew to 60-80%, the culture medium was removed, washed with 7 mL PBS (Phosphate Buffered Saline) once, then 3 mL 0.25% Trypsin was added to digest. After the digestion was completed, 7 mL culture medium (90% DMEM/F12+10% FBS±500 μg/mL G418) was added to neutralize, centrifugated for 3 minutes at 800 rpm. The supernatant was aspirated, then 5 mL culture medium was added to resuspend, and then the cells were counted.
Cell plating: according to the results of cell counting, the density was adjusted to 3×10^4 cells/well. After standing at room temperature for 30 minutes, the plate was placed in a 37° C. CO2 incubator and incubated overnight for 16-18 hours. The cell density reached about 80%.
Fluorescent dye incubation: the cell culture medium was discarded, 80 μL/well loading buffer was added, and incubated in the dark at room temperature for 60 minutes. Compound incubation: the loading buffer was discarded, 80 μL/well prepared compound solution was added, and incubated in the dark at room temperature for 20 minutes.
Fluorescence data collection: FDSS/μCELL instrument was used for real-time fluorescence signal recording with excitation wavelength at 480 nm and emission wavelength at 540 nm, recorded 1 time per second, and 20 μL/well stimulation buffer was started to add after recording for 10 seconds for baseline, and then continued to record until the end of 180 seconds.
The above buffer come from a commercially available kit named FluxOR potassium ion channel assay.
20 mM DMSO compound mother liquor was prepared, 10 μL of 20 mM compound mother liquor was took into 20 μL DMSO solution, serially diluted 3 times to 8 intermediate concentrations; then the intermediate concentrations of the compound was took out and added to the test buffer, diluted for 200 times to get the final concentration to be tested, 80 μL was took out and added to the test plate.
The highest test concentration was 100 μM, followed by […], 33.33, 11.11, 3.70, 1.23, 0.41, 0.137, 0.045 μM, total 8 concentrations. Each concentration set 3 duplicate wells.
This concentration of DMSO has no effect on the KCNQ2 potassium channel.
Experimental data was analyzed by Excel 2007 and GraphPad Prism 5.0 software, and the ratio of 180 seconds was calculated to calculate the agonism effect. The agonism effect of the compound was calculated by the following formula: […]
Reagent: FluxORTM Detection Kit (Invitrogen, Cat #F0017)
The experimental data in the report must meet the following criteria: Z′ Factor>0.5
2. Results: See Table 1, wherein the smaller the EC50 is, the higher the activity of the corresponding compound is.

[2] = Pharmacokinetics of mice, single intravenous and oral administration, plasma; format: in vivo; settings: male ICR mice; for F: gavage 10 mg/kg vs intravenous; for AUC(0-inf) / AUC(0-t) / Cmax / Tmax / half-life: mouse, plasma
Experimental: Study on Pharmacokinetics of Mice
1) Research purposes: In order to obtain the pharmacokinetic characteristics and blood-brain barrier of the tested compound in male ICR mice
Six healthy male ICR mice (body weight range 18-22 g) were taken and divided into 2 groups and 3 mice/group. After fasting overnight (only oral administration group), […], blood was collected by jugular vein puncture at time points 0.083 (IV only), 0.25, 0.5, 1, 2, 4, 6 (PO only), 8 and 24 hours, and at least 0.3 mL of whole blood was collected to EDTA-K2 anticoagulant tube. Plasma was centrifuged (6000 rpm, 8 minutes, 4° C.) within half an hour and frozen at −20° C. for later use.
(§1) Experimental results: According to the blood drug concentration data obtained, the non-compartmental model of WinNonlin® 7.0 software (Pharsight, USA) was used to calculate the pharmacokinetic parameters after administration.

[3] = Brain-blood ratio study in mice after single oral administration; format: in vivo; settings: mouse, brain and plasma, male ICR mice, single oral 10 mg/kg, read-out: Cerebral blood ratio; for Kp at 2 h: time point 2 h; for Kp at 4 h: time point 4 h
Experimental: Brain-blood ratio study: 6 healthy male ICR mice (body weight range 18-22 g) were taken and divided into 2 groups and 3 mice/group. After fasting overnight, the compound to be tested (10 mg/kg) was administrated orally respectively. Blood was taken through cardiac puncture at time points 2 and 4 hours, at least 0.5 mL of whole blood was collected to EDTA-K2 anticoagulant tube. Plasma was centrifuged (6000 rpm, 8 minutes, 4° C.) within half an hour and frozen at −20° C. for later use. At the same time, the brain tissue was collected, rinsed with normal saline, then sucked to dryness with absorbent paper, weighed, and frozen at −20° C. for later use.
The cerebral blood ratio is very important to nerve drugs, and it can be seen from Table 3 that the compounds of the present invention have excellent cerebral blood ratio, which will bring better drug efficacy and excellent safety. By comparing the cerebral blood ratios of compound A, compound 1, compound B and compound J, it can be seen that after the tert-butyl of compound A or compound B has been changed into […]

[4] = Pharmacokinetics of rats, single intravenous and oral administration, plasma; format: in vivo; settings: male SD rats; for F: gavage 5 mg/kg vs intravenous 0.3 mg/kg; for AUC(0-inf) / AUC(0-t) / Cmax / Tmax / half-life: rat, plasma
Experimental: Study on Pharmacokinetics of Rats
1) Research purpose: To obtain the pharmacokinetic characteristics of the compounds to be tested in male SD rats.
Pharmacokinetic study: 6 healthy male SD rats (SPF grade) were divided into 2 groups and 3 rats/group. After fasting overnight (only oral administration group), compound A was administrated 0.3 mg/kg intravenously and 5 mg/kg orally, blood was collected by jugular vein puncture at time points 0.083 (IV only), 0.25, 0.5, 1, 2, 4, 6 (PO only), 8 and 24 hours, and at least 0.3 mL of whole blood was collected to EDTA-K2 anticoagulant tube. Plasma was centrifuged (6000 rmp, 8 minutes, 4° C.) within half an hour and frozen at −20° C. for later use.
as §1

[5] = intravenous 1 mg/kg (footnote *)

## Cc1cc2c(c(C)c1NC(=O)CC1CC(F)(F)C1)CCN(c1ccc(F)cc1)C2 [Compound A5]
[1]
  EC50: 49 nM
  Maximum agonist rate (%): 34.41%

## Cc1cc2c(c(C)c1NC(=O)CC1(C)CC1)CCN(c1ccc(C#N)cc1)C2 [Compound O]
[1]
  EC50: 780 nM
  Maximum agonist rate (%): 29.43%

## Cc1cc2c(c(C)c1NC(=O)CC1(C)CC1)CCN(c1ccc(F)cc1F)C2 [Compound J]
[2]
  F: 19.18%
[2]; po, gavage 10 mg/kg
  AUC(0-inf): 703 ng·h/mL
  AUC(0-t): 693 ng·h/mL
  Cmax: 374 ng/mL
  Tmax: 15 min
  half-life: 1.81 h
[2]; [5]
  AUC(0-inf): 366 ng·h/mL
  AUC(0-t): 361 ng·h/mL
  Cmax: 942 ng/mL
  Tmax: 4.8 min
  half-life: 0.88 h
[3]
  Kp at 2 h: 4.1
  Kp at 4 h: 3.2

## Cc1ccc(N2CCc3c(cc(C)c(NC(=O)CC(C)(C)C)c3C)C2)cc1 [Compound U]
[1]
  EC50: 330 nM
  Maximum agonist rate (%): 52.3%

## Cc1cc2c(c(C)c1NC(=O)CC1(C)CC1)CCN(c1ccc(F)cc1)C2 [Compound I]
[4]
  F: 30.11%
[4]; po, gavage 5 mg/kg
  AUC(0-inf): 855 ng·h/mL
  AUC(0-t): 822 ng·h/mL
  Cmax: 221 ng/mL
  Tmax: 30 min
  half-life: 375 min
[4]; intravenous 0.3 mg/kg
  AUC(0-inf): 166 ng·h/mL
  AUC(0-t): 164 ng·h/mL
  Cmax: 345 ng/mL
  Tmax: 4.8 min
  half-life: 104 min
[2]
  F: 24.6%
[2]; po, gavage 10 mg/kg
  AUC(0-inf): 539 ng·h/mL
  AUC(0-t): 528 ng·h/mL
  Cmax: 192 ng/mL
  Tmax: 19.8 min
  half-life: 3.86 h
[2]; intravenous 0.5 mg/kg
  AUC(0-inf): 108 ng·h/mL
  AUC(0-t): 107 ng·h/mL
  Cmax: 299 ng/mL
  Tmax: 4.8 min
  half-life: 0.86 h
[3]
  Kp at 2 h: 6
  Kp at 4 h: 5.8
[1]
  EC50: 440 nM
  Maximum agonist rate (%): 38.3%

## Cc1cc2c(c(C)c1NC(=O)CC1(C)CC1)CCN(c1ccc(C(F)(F)F)cc1)C2 [Compound P]
[2]
  F: 83.77%
[2]; po, gavage 10 mg/kg
  AUC(0-inf): 30900 ng·h/mL
  AUC(0-t): 5990 ng·h/mL
  Cmax: 315 ng/mL
  Tmax: 520 min
  half-life: 84.3 h
[2]; intravenous 0.5 mg/kg
  AUC(0-inf): 383 ng·h/mL
  AUC(0-t): 357 ng·h/mL
  Cmax: 382 ng/mL
  Tmax: 4.8 min
  half-life: 2.67 h
[3]
  Kp at 2 h: 6.4
  Kp at 4 h: 5.96
[1]
  EC50: 34 nM
  Maximum agonist rate (%): 38.22%

## Cc1cc2c(c(C)c1NC(=O)CC1(C)CC1)CCCN(c1ccc(F)cc1)C2 [Compound A2]
[1]
  EC50: 130 nM
  Maximum agonist rate (%): 44.53%

## Cc1cc2c(c(C)c1NC(=O)CC(C)(C)C)CCN(c1ccc(F)cc1)C2 [Compound A]
[4]
  F: 38.93%
[4]; po, gavage 5 mg/kg
  AUC(0-inf): 1280 ng·h/mL
  AUC(0-t): 909 ng·h/mL
  Cmax: 154 ng/mL
  Tmax: 90 min
  half-life: 184 min
[4]; intravenous 0.3 mg/kg
  AUC(0-inf): 144 ng·h/mL
  AUC(0-t): 140 ng·h/mL
  Cmax: 332 ng/mL
  Tmax: 4.8 min
  half-life: 59.4 min
[2]
  F: 33.79%
[2]; po, gavage 10 mg/kg
  AUC(0-inf): 793 ng·h/mL
  AUC(0-t): 792 ng·h/mL
  Cmax: 142 ng/mL
  Tmax: 40.2 min
  half-life: 2.61 h
[2]; intravenous 0.5 mg/kg
  AUC(0-inf): 118 ng·h/mL
  AUC(0-t): 117 ng·h/mL
  Cmax: 270 ng/mL
  Tmax: 4.8 min
  half-life: 0.99 h
[3]
  Kp at 2 h: 2.3
  Kp at 4 h: 2.8
[1]
  EC50: 440 nM
  Maximum agonist rate (%): 37.97%

## Cc1cc2c(c(C)c1NC(=O)CC1(C)CC1)CCN(c1cccc(F)c1)C2 [Compound Z]
[1]
  EC50: 94 nM
  Maximum agonist rate (%): 48.65%

## Cc1cc2c(c(C)c1NC(=O)CC1(C(F)(F)F)CC1)CCN(c1ccc(F)cc1)C2 [Compound A6]
[1]
  EC50: 290 nM
  Maximum agonist rate (%): 17.08%

## C#Cc1ccc(N2CCc3c(cc(C)c(NC(=O)CC(C)(C)C)c3C)C2)cc1 [Compound D]
[1]
  EC50: 450 nM
  Maximum agonist rate (%): 29.51%

## Cc1cc2c(c(C)c1NC(=O)CC1(C)CC1)CCN(c1ccc(Br)cc1)C2 [Compound Y]
[1]
  EC50: 200 nM
  Maximum agonist rate (%): 37.96%

## Cc1cc2c(c(C)c1NC(=O)CC1(C)CC1)CCN(c1cccc(C(F)(F)F)c1)C2 [Compound A4]
[1]
  EC50: 270 nM
  Maximum agonist rate (%): 48.11%

## Cc1cc2c(c(C)c1NC(=O)CCC1CC1)CCN(c1ccc(F)cc1)C2 [Compound A7]
[1]
  EC50: 400 nM
  Maximum agonist rate (%): 35.92%

## Cc1cc2c(c(C)c1NC(=O)CC1(C)CC1)CCN(c1ccccc1F)C2 [Compound A1]
[1]
  EC50: 730 nM
  Maximum agonist rate (%): 35.84%

## Cc1cc2c(c(C)c1NC(=O)CC1(C)CC1)CCN(c1ccccc1)C2 [Compound V]
[1]
  EC50: 340 nM
  Maximum agonist rate (%): 45.76%

## Cc1cc2c(c(C)c1NC(=O)CC1(C)CC1)CCN(c1ccc(I)cc1)C2 [Compound X]
[1]
  EC50: 72 nM
  Maximum agonist rate (%): 28.94%

## [2H]C1([2H])c2cc(C)c(NC(=O)CC3(C)CC3)c(C)c2CCN1c1ccc(C(F)(F)F)cc1 [Compound A3]
[1]
  EC50: 210 nM
  Maximum agonist rate (%): 36.16%

## Cc1cc2c(c(C)c1NC(=O)CC1(C)CC1)CCN(c1ccc(Cl)cc1)C2 [Compound W]
[1]
  EC50: 180 nM
  Maximum agonist rate (%): 33.2%

## Cc1cc2c(c(C)c1NC(=O)CC(C)(C)C)CCN(c1ccc(F)cc1F)C2 [Compound B]
[4]
  F: 43.63%
[4]; po, gavage 5 mg/kg
  AUC(0-inf): 1080 ng·h/mL
  AUC(0-t): 1070 ng·h/mL
  Cmax: 128 ng/mL
  Tmax: 240 min
  half-life: 208 min
[4]; intravenous 0.3 mg/kg
  AUC(0-inf): 149 ng·h/mL
  AUC(0-t): 147 ng·h/mL
  Cmax: 352 ng/mL
  Tmax: 4.8 min
  half-life: 120 min
[2]
  F: 88.56%
[2]; po, gavage 10 mg/kg
  AUC(0-inf): 1430 ng·h/mL
  AUC(0-t): 1400 ng·h/mL
  Cmax: 776 ng/mL
  Tmax: 15 min
  half-life: 2.64 h
[2]; [5]
  AUC(0-inf): 161 ng·h/mL
  AUC(0-t): 158 ng·h/mL
  Cmax: 405 ng/mL
  Tmax: 4.8 min
  half-life: 0.94 h
[3]
  Kp at 2 h: 0.99
  Kp at 4 h: 0.72
[1]
  EC50: 160 nM
  Maximum agonist rate (%): 37.5%
